# Earlier results in patent US20060292225A1, “WATER SOLUBLE ANALGESIC FORMULATIONS AND METHODS FOR PRODUCTION” (priority 2005, published 2006).
# Where two headings read alike, the source gives them in different places.
# Key:
# [1] = tested on: arthritis inflammation
# [2] = aqueous, hydrolysis
structure (smiles),measurement,setting,value
"CC(=O)Oc1ccccc1C(=O)O [aspirin, Acetylsalicylic acid]",rate of successful treatment,[1]; daily dosage 2500 mg,less than 10%
same,rate of successful treatment,"[1]; daily dosages of 4,000 to 5,000 mg or greater",over 70%
same,"incidence of side effects (nausea, gastric upset, pain)",higher anti-inflammatory dosages,about 25%
same,"incidence of side effects (nausea, gastric upset, pain)","low analgesic dose levels, adult users",2-10%
same,pH of maximum stability,[2],2.4
